Reference: patent US20130011921A1, “METHOD FOR PRODUCTION OF ARTIFICIAL PLURIPOTENT STEM CELL” (SAITAMA MEDICAL UNIVERSITY, priority 2010, published 2013)
“Also recorded” adds a separate entry of the source.

Key:
Nanog-GFP MEF [1] = experiment: Induction of mouse iPS cells, Puro-resistant AP-positive colonies; type: cell-based
Procedure: (§1) For retroviral introduction, a retroviral vector expressing each pluripotency inducer (Oct-3/4, Sox2, KLF4, and c-Myc) was introduced into packaging cells, PLAT-E cells (Kitamura T, et al. (2003) Exp Hematol 31:1007-1014). Culture supernatants of PLAT-E cells were each recovered two days after gene introduction, and filtered through a 0.45 μm cellulose acetate. Polybrene was then added to a final concentration […], an equal amount of each culture supernatant was mixed, and the mixture was added to Nanog-GFP MEF (Okita K, Ichisaka T, Yamanaka S. (2007) nature 448:313-317) for viral infection. Nanog-GFP MEF is a cell being a mouse embryonic fibroblast (MEF) to which a BAC was introduced, wherein a GFP-IRES-Puro^r cassette is inserted into the BAC carrying the mouse Nanog gene.
On Day 4 after retroviral infection, these were seeded on STO feeder cells with suppressed proliferation ability from mitomycin C (SIGMA: M4287) treatment (seeded at 2×10^3 cells/ml for cells infected with 4F (c-Myc), 3.5×10^4 cells/ml for 3F), and on the next day cultured in mouse ES cell medium (Nishimoto M, et al. (1999) Mol Cell Biol 19:5453-5465). Thereafter the medium was replaced every two days, replaced with puromycin (Puro)-containing mouse ES cell medium (Puro to a final concentration of […]) on Day 17 after infection, and cultured for eight more days. Alkaline phosphatase (AP) staining was then performed. Nicotinamide was added simultaneously with retroviral infection to a final concentration 4 mM, and then added at the same concentration for every medium exchange.
In order to investigate the optimal treatment time of nicotinamide, nicotinamide was added under each conditions of until Day 24 after retroviral infection (Nam 0-24d), until Day 4 after retroviral infection (Nam 0-4d), and from Day 4 to Day 24 after retroviral infection (Nam 4-24d), and iPS cells were induced by 4F (c-Myc). Experimental method other than the […] treatment time was in accordance with Test 1.
Consequently, resveratrol which activates sirtuin (SIRT1) was added to the medium instead of nicotinamide to investigate the induction effect of iPS cells. Experimental method was in accordance with Test 2, except that resveratrol (Res) was added to the medium to a final concentration 100 μM.

Nanog-GFP MEF [2] = experiment: GFP observation of induced mouse iPS cells with a fluorescence microscope; type: cell-based; conditions: 4F (c-Myc)
Procedure: as §1

Nanog-GFP MEF [3] = experiment: Inspection on Day 4 after retroviral infection (colonies, cell count, AP staining, undifferentiated markers); type: cell-based, mouse
Procedure: As a result, iPS cell-like colonies were recognized in the Nam treatment group, but not in the untreated control group. (FIGS. 4 and 5A). Next, in order to investigate the influence of nicotinamide on Day 4 after infection, the number of cells was counted and AP staining was performed. […] Further, as a result of investigating the expression of various undifferentiated markers, it became clear that the expression of undifferentiated markers was increased compared to the non-treatment group due to nicotinamide treatment (data not shown). Accordingly, it became clear that iPS cell induction was already promoted on Day 4 after infection by nicotinamide treatment.

Nanog-GFP MEF [4] = experiment: Induction of mouse iPS cells in the presence of MEK inhibitor and GSK-3 inhibitor (2i method), fluorescence microscope; type: cell-based; conditions: 4F (c-Myc); nicotinamide treatment followed by 2i method; FIGS. 7C and 7D
Procedure: Nanog-GFP MEF was subjected to forced expression of 4F(c-Myc) retrovirally. These were seeded on feeder cells on Day 4 after retroviral infection, and cultured in mouse ES cell medium from the following day. This was replaced with a serum-free mouse ES cell medium comprising PD0325901 (1 μM) and CHIR99021 (3 μM) (2i medium) from Day 12 after infection. […] As the control zone, culturing was also performed in a serum-free mouse ES cell medium without PD0325901 and CHIR99021 from 12 days after infection for four days. It was confirmed that true iPS cells are increased by the 2i method (FIGS. 7A and 7B).

Nanog-GFP MEF [5] = experiment: 2i method timing and combination with nicotinamide, Puro-resistant AP-positive colonies; type: cell-based, mouse
Procedure: Nanog-GFP MEF was subjected to forced expression of 4F(c-Myc) retrovirally. These were seeded on feeder cells on Day 4 after retroviral infection, and cultured in mouse ES cell medium from the following day until replaced with the 2i medium. Culturing in the 2i medium was initiated on (1) Day 5, (2) Day 7, (3) Day 9, (4) Day 11, (5) Day 13, and (6) Day 15 after retroviral infection, and continued until Day 17 after infection. From Day 17 after infection, drug selection by Puro was performed for eight days, and then AP staining was performed. […] Next, in order to compare when the nicotinamide treatment is performed simultaneously with retroviral infection and when it is performed after one day post infection, investigation was performed in accordance with the conditions of Test 5 (1).

human fibroblasts = experiment: Induction of human iPS cells in the presence of nicotinamide, AP-positive colonies; type: cell-based
Procedure: For retroviral introduction, retroviral vectors expressing each pluripotency inducer (Oct-3/4, Sox2, KLF4, and c-Myc) were introduced into packaging cells, PLAT-GP cells (Morita S, et al. (2000) Gene Therapy 7:1063-1066). Culture supernatants of PLAT-GP cells were each recovered two days after gene introduction, and filtered through a 0.45 μm cellulose acetate. Polybrene was then added to a final concentration […], an equal amount of each culture supernatant was mixed, and the mixture was added to human fibroblasts for viral infection. These were seeded on feeder cells on Day 6 after retroviral infection (4F (c-Myc): 2.5×10^4; 4F (L-Myc): 5.0×10^4), and cultured in human ES cell medium on the following day (Takahashi K, et al (2007) Cell 131:861-872). Thereafter the medium was exchanged every two days, and cultured until thirty days after infection. Alkaline phosphatase (AP) staining was then performed, and the number of AP-positive colonies was counted. Nicotinamide was added simultaneously with retroviral infection to a final concentration 4 mM, and then added at the same concentration for every medium exchange until Day 6 after infection. The control zone was cultured to thirty days after infection without adding nicotinamide.

NC(=O)c1cccnc1 [nicotinamide]
number of Puro-resistant colonies (Nanog-GFP MEF [1]; 4F (c-Myc), nicotinamide added Day 0 to Day 4 (Nam 0-4d), FIG. 3): similarly significantly increased
number of Puro-resistant colonies (Nanog-GFP MEF [1]; 4F (c-Myc), nicotinamide added Day 0 to Day 24 (Nam 0-24d), FIG. 3): significantly increased
effect of increasing the number of Puro-resistant colonies (Nanog-GFP MEF [1]; 4F (c-Myc), nicotinamide added on or after Day 4 (Nam 4-24d), FIG. 3): barely obtained
increase in induction efficiency (Puro-resistant AP-positive colonies) (Nanog-GFP MEF [1]; cells infected with 3F (without c-Myc), nicotinamide 4 mM, FIG. 1C): not seen
number of colonies showing resistance to puromycin (Puro-resistant AP-positive colonies) (Nanog-GFP MEF [1]; cells infected with 4F (c-Myc), nicotinamide 4 mM from infection, at every medium exchange, FIG. 1A, 1B): significantly increased
GFP color development vs non-administration group (Nanog-GFP MEF [2]; after drug selection by Puro, FIG. 2 lower column): more intense color development
GFP color development vs nicotinamide-untreated control cells (Nanog-GFP MEF [2]; without drug selection by Puro, FIG. 2 upper column): slightly more intense color development
number of AP-positive colonies (Nanog-GFP MEF [3]; Day 4 after infection, FIG. 5C): significant increase
number of cells (Nanog-GFP MEF [3]; Day 4 after infection, vs non-treatment cell group, FIG. 5B): increase
expression of undifferentiated markers (Nanog-GFP MEF [3]; Day 4 after infection, vs non-treatment group, data not shown): increased
iPS cell-like colonies (Nanog-GFP MEF [3]; Day 4 after retroviral infection, vs untreated control group, FIGS. 4 and 5A): recognized
true iPS cells (Nanog-GFP MEF [4]): dramatic increase
proportion of true iPS cells (Nanog-GFP MEF [5]; nicotinamide 4 mM Day 0 to Day 4 plus 2i method as Test 5 (1), FIG. 9A): significantly increased
induction efficiency compared to the conventional method (Nanog-GFP MEF [5]; nicotinamide treatment combined with 2i method, FIG. 9): about 10 times
induction efficiency, nicotinamide Day 1 to Day 4 relative to Day 0 to Day 4 (Nanog-GFP MEF [5]; with 2i method as Test 5 (1), FIG. 9B): three-fold; also recorded: three times or more
induction efficiency of iPS cells (human fibroblasts; L-Myc as the Myc family gene, 4F (L-Myc), FIG. 10B): increased
induction efficiency of iPS cells (human fibroblasts; c-Myc as the Myc family gene, 4F (c-Myc), FIG. 10A): increased
number of AP-positive colonies (human fibroblasts; nicotinamide 4 mM until Day 6, counted thirty days after infection, vs zone without nicotinamide, FIG. 10): increased

Oc1ccc(C=Cc2cc(O)cc(O)c2)cc1 [resveratrol]
number of Puro-resistant colonies (Nanog-GFP MEF [1]; 4F (c-Myc), resveratrol 100 μM added Day 0 to Day 4, vs DMSO control, FIG. 6): significantly decreased
number of Puro-resistant colonies (Nanog-GFP MEF [1]; 4F (c-Myc), resveratrol 100 μM added Day 0 to Day 17, vs DMSO control, FIG. 6): significantly decreased
number of Puro-resistant colonies (Nanog-GFP MEF [1]; 4F (c-Myc), resveratrol 100 μM added on Day 4 after introduction, FIG. 6): relatively large number
